The source of these data is patent publication US20250228873A1, “C25 R AND S ISOMERS OF AMINOSTEROLS AND METHODS OF MAKING AND USING THE SAME” (Enterin, Inc., priority 2022, published 2025).

By AUC(0-inf) is commonly meant total exposure, with the tail of the curve extrapolated. High values mean more exposure, low ones less exposure. For orientation: AUC(0-t) means exposure summed from dosing to a finite time, without extrapolation to infinity. A lower AUC(0-t) goes with low exposure. Usually half-life stands for the time in which the quantity being followed falls by half.

“And” between values parts separate entries of the source, which are not always exact repeats. Equal values may be shown once. Read-outs that look alike come from different tables or passages of the source.

The target in series [1] is T1, DUSP22/MKPX (Homo sapiens, UniProt Q9NRW4).
T1 construct: purchased Recation Biology Inc
T1 sequence (Q9NRW4 1-184): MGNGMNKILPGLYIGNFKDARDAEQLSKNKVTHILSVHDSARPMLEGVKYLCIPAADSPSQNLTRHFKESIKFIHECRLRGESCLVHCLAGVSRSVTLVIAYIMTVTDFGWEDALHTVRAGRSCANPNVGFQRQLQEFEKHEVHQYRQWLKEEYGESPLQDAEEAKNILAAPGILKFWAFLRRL
Nature of the series: Phosphatase panel, DiFMUP fluorescence assay. The series is classed as biochemical.

Series [2] concerns the target T2, PTPN7/LC-PTP (Homo sapiens, UniProt P35236).
T2 construct: purchased Recation Biology Inc
T2 sequence (P35236 1-360): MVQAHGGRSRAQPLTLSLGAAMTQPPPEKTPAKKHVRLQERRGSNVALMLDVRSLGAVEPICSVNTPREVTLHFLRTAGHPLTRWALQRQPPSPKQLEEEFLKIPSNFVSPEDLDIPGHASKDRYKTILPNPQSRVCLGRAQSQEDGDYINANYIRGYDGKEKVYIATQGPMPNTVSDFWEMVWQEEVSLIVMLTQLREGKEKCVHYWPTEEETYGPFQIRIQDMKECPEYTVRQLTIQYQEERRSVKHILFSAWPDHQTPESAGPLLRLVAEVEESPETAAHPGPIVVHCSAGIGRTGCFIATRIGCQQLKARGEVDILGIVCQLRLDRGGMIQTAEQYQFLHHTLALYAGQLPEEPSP
Nature of the series: Phosphatase panel, DiFMUP fluorescence assay. The series is classed as biochemical.

Series [3] deals with T3, PP2A Alpha/PP2R1A Complex (Homo sapiens, UniProt P67775).
T3 construct: purchased Recation Biology Inc
As to the kind of experiment: Phosphatase panel, DiFMUP fluorescence assay. In kind it is biochemical.

A short description of series [4]: Mouse weight after deuterated ENT-03 i.p. (FIG. 12). The series is classed as in vivo. The conditions noted are these: i.p. to mice. The text has this:
The presence of the deuterium on the side chain likely slows the action of the 2-methylacyl-coenzyme A racemase on C-25, the subsequent action of the dehydrogenase that produces the 24,25-trans-unsaturated derivative by removing the deuterium atoms at C24 and C25, and the subsequent hydration and oxidation at the C24 bond catalyzed by the D-bifunctional protein. Instead, the metabolism of ENT-03D3 will begin with the oxidation at C24 by CYP46A1, yielding the following compound: […]

The target in series [5] is Tyrosine-protein phosphatase non-receptor type 11 (Homo sapiens, UniProt Q06124). Nature of the series: Phosphatase panel, DiFMUP fluorescence assay. In kind it is biochemical.
Series [6] in a line: Weight gain in growing male mice (about 25 grams). The series is classed as in vivo. The conditions noted are these: similar dosing regimen, FIG. 2. Here is the method: In a second experiment, growing male mice, about 25 grams, were administered either compound following a similar dosing regimen. As in the previous experiment, both compounds affected weight gain.
Series [7] is described as follows: Weight loss in ad lib fed mice (about 50 grams), i.p. every other day. In kind it is in vivo, male Swiss Webster mice. To be noted: i.p. 10 mg/kg every other day, food ad lib. The source says:
Food was provided ad lib.
By 27 days both sets of treated mice had lost about 10% of their starting body weight.

Series [8] can be described thus: Weight loss, i.p. once weekly over 6 weeks (FIG. 1C). The conditions noted are these: intraperitoneal once weekly over 6 weeks. In kind it is in vivo, C57bl/6 male mice.
Series [9] can be described thus: Pharmacokinetic profile, intravenous administration. In kind it is in vivo, male SD Rats. To be noted: I.V. 5 mg/kg, plasma; for MRT inf: read-out: MRTInf_obs. Here is the method: The objective of this example was to determine the pharmacokinetic profile of ENT-03 (Compound III) via intravenous and oral administration in male SD Rats.
Animal feeding control: Animals were food fasted overnight prior to dosing and fed 4 hours after administration having free access to water.
PK Sample Analyses: Concentrations of ENT-03 (Compound III) in the plasma and dose samples were analyzed using a LC-MS/MS method. WinNonlin (Phoenix™, version 6.1) or other similar software was used for pharmacokinetic calculations. The following pharmacokinetic parameters were calculated, whenever possible from the plasma concentration versus time data.
IV Bolus administration: T1/2, C0, AUClast, AUCinf, MRTinf, Cl, Vss, Number of Points for Regression.
The pharmacokinetic data was described using descriptive statistics such as mean and standard deviation. All the residual biological samples were retained in the freezer ([…]) for a period of 6 months after testing.

The mark [10] stands for this setting: Table 5B, read-out: Compound IC50 (M) DUSP22/MKPX.
Setting [11] is: Table 19A, read-out: inhibitory activity DUSP22/MKPXPT.
Setting [12] is: Table 5C, read-out: Compound IC50 (M) PTPN7/LC-PTP.
The mark [13] stands for this setting: Table 19B, read-out: inhibitory activity PTPN7/LC-PTP.
[14] abbreviates: Table 5B, read-out: Compound IC50 (M) PP2A Alpha/PP2R1A Complex.
Where [15] appears, read: Table 19A, read-out: inhibitory activity PP2A Alpha/PP2R1A Complex.
[16] abbreviates: individual rats (Rat 1-3), listed as ENT-03 (Compound III), 5 mg/kg.
The mark [17] stands for this setting: male, SD, rat, iv, 5 mg/kg, Mean.
[18] abbreviates: male, SD, rat, iv, 5 mg/kg, individual rats (Rat 1-3).

T3 sequence (P67775 whole entry): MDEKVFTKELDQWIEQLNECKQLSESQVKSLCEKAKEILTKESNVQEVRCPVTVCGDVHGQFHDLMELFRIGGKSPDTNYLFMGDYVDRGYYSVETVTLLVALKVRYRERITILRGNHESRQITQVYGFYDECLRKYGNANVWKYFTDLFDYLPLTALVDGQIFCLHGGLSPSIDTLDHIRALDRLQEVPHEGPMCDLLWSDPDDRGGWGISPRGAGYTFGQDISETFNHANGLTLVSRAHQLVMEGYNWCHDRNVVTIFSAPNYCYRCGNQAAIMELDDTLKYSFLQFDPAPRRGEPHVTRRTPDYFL
T3 sequence (P30153 whole entry partner): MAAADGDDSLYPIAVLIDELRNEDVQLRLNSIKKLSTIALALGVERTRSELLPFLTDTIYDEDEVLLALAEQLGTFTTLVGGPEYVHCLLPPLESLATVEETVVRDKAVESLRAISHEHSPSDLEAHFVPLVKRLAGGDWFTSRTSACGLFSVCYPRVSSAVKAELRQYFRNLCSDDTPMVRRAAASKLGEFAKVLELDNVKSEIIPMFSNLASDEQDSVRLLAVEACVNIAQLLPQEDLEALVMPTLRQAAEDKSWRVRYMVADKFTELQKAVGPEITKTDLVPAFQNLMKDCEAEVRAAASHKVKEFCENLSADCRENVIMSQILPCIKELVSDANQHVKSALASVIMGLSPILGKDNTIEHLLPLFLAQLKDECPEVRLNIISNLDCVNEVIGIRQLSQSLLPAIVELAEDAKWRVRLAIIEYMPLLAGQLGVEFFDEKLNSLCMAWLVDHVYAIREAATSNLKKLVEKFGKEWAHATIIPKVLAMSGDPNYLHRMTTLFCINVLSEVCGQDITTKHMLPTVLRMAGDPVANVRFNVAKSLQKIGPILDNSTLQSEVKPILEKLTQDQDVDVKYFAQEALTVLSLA
Sequence of Tyrosine-protein phosphatase non-receptor type 11 (Q06124 247-517): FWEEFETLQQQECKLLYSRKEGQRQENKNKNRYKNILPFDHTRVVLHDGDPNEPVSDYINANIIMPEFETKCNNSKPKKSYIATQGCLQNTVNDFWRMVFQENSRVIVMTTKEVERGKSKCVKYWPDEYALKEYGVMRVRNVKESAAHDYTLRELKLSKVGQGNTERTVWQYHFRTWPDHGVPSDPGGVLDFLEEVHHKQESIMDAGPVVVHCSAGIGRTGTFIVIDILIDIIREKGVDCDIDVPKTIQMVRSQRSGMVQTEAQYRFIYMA

Regarding `CC(CCC[C@@H](C)[C@H]1CCC2C3C(CC(O)[C@@]21C)[C@@]1(C)CC[C@H](NCCCNCCCCN)C[C@@H]1C[C@H]3O)C(=O)O` (single isomer, unassigned) [ENT-05], the IC50 was above 0.0001 M in series [1] (Table 18A, read-out: inhibitory activity DUSP22/MKPX); 3.97e-06 M in series [2] (Table 18B, read-out: inhibitory activity PTPN7/LC-PTP); 3.8e-06 M in [3] (Table 18A, read-out: inhibitory activity PP2A Alpha/PP2R1A Complex).
Regarding `CC(CCC[C@@H](C)[C@H]1CCC2C3C(CC[C@@]21C)[C@@]1(C)CC[C@H](NCCCNCCCCNCCCN)C[C@@H]1C[C@H]3O)C(=O)O` (single isomer, unassigned) [ENT-03], the IC50 in series [1] (setting [10]) turned out to be 1.38e-06 M. The IC50 in series [1] (setting [11]) is 1.38e-06 M. Also, the “effect on weight” value in series [4] is given as “loss of weight”. In series [5], the IC50 was 5 µM. Besides, the IC50 in series [2] (setting [12]) was 6.34e-07 M. The IC50 in series [2] (setting [13]) is 6.34e-07 M. The “effect on growth / weight gain” value in [6] is listed as “continued normal growth”. Also, in series [7], the “effect on weight” value was “weight loss with kinetics similar to that seen following administration of ENT-02”, the “gradual recovery to the starting weight by” value is around 45 days, the “nadir of weight decrease” value is around 16 days and the “starting body weight lost by 27 days” value is recorded as “about 10%”. The “activity at PP2 Å alpha” value in [3] is “inactive”. The IC50 in series [3] (setting [14]) is above 0.0001 M. For the same molecule, the IC50 in series [3] (setting [15]) is above 0.0001 M. Also, in [8], the “clinical appearance other than weight loss” value is on record as “appeared clinically normal” and the “effect on weight” value is on record as “dose dependent weight loss”. Moreover, in series [9] (Mean), the AUC_%Extrap_obs was found to be 38.2%, the AUClast/D was determined as 122000 h·ng/mL per mg/kg, the Cl_obs came to 5.1 mL/h/kg and the Vss_obs is 0.125 L/kg. Further, in series [9] (setting [16]), the AUCInf is 941.13 µg·h/mL and 1095.763 µg·h/mL; the AUC_%Extrap_obs is 39.6% and 35.4% and 39.7%; the AUClast was 608.321 µg·h/mL and 661.154 µg·h/mL; the AUClast/D is 112000 h·ng/mL per mg/kg and 122000 h·ng/mL per mg/kg and 132000 h·ng/mL per mg/kg. In [9] (setting [16]), the C0 is 102.409 µg/mL and 76.2 µg/mL; the Cl_obs was 5.42 mL/h/kg and 5.31 mL/h/kg and 4.57 mL/h/kg; the MRTInf_obs was 22.9 h and 25.5 h; the T1/2 was 17.5 h and 18.6 h. In addition, the Vss_obs in [9] (setting [16]) is 0.137 L/kg and 0.122 L/kg and 0.116 L/kg. In addition, in [9] (setting [17]), the AUC(0-inf) worked out at 986 µg·h/mL, the exposure AUC(0-t) was 609 µg·h/mL, the half-life is 18.2 h and the MRT inf was found to be 24.6 h. Besides, the C0 in [9] (male, SD, rat, iv, 5 mg/kg, Mean, read-out: C0) is 86.3 µg/mL. Besides, in series [9] (setting [18]), the total exposure AUC(0-inf) came to 922 µg·h/mL, the area under the curve AUC(0-t) is 558 µg·h/mL, the half-life is 18.6 h and the MRT inf was 25.3 h. Also, in [9] (male, SD, rat, iv, 5 mg/kg, individual rats (Rat 1-3), read-out: C0), the C0 turned out to be 80.4 µg/mL.
Turning to `CC(CCC[C@@H](C)[C@H]1CCC2C3C(CC[C@@]21C)[C@@]1(C)CC[C@H](NCCCNCCCCN)C[C@@H]1C[C@H]3O)C(=O)O` (single isomer, unassigned) [ENT-06], the figures for the IC50 in [1] (setting [11]), in series [2] (setting [13]) and in series [3] (setting [15]) were 2.09e-06 M, 1.05e-06 M and above 0.0001 M, respectively.
`CC(C)[C@@H](CC[C@@H](C)[C@H]1CC[C@H]2[C@@H]3[C@H](O)C[C@H]4C[C@@H](NCCCNCCCCNCCCN)CC[C@]4(C)[C@H]3CC[C@]12C)OS(=O)(=O)O` (single isomer, unassigned) [ENT-02 (MSI-1436), trodusquemine]: the IC50 in series [1] (setting [10]) turned out to be 6.39e-07 M; in [5], 0.375 µM; in series [2] (setting [12]), 1.65e-06 M; in [3] (setting [14]), 5.72e-05 M. Besides, the “effect on growth / weight gain” value in [6] is “suppressed growth as well as having induced consumption of body fat”. The “effect on weight” value in series [7] was “more severe decline”.
